“Also recorded” adds a separate entry of the source.
Columns and labels:
[1] = system: anaesthetized rats; test: Intracavernous pressure / spontaneous erections in anaesthetized rats; type: in vivo, rat; conditions: rats
Method: For in vivo erectile physiology studies, rats were anaesthetized with pentobarbital sodium (Sygehus Apoteket, Aarhus, Denmark; 50 mg/kg) given intraperitoneally. During the experiment, the rats breathed spontaneously; the body temperature was monitored continuously and was maintained at 37° C. With a midline incision in the perineum, the base of the penis, enclosed by striated muscles, was exposed. The ischiocavernous muscle covering the crus corpus cavernosum was divided on one side, and entrance to the underlying tunica albuginea was given. A 25-gauge needle attached to a heparinized (100 IE ml-1) polyethylene catheter was inserted into the crus corpus cavernosum to measure intracavernous pressure (ICP). A heparinized polyethylene catheter (PE 50) was introduced into the carotid artery to measure mean arterial pressure (MAP). Continuous direct measurements of MAP and ICP were performed with transducers (Disposable BP Transducer, ADInstruments, UK), and registered and analysed on a computerized data acquisition system (PowerLab, ADInstruments).
A stabilizing period of 20-30 min was allowed before registration of basal ICP and MAP. Through a lower abdominal incision, the cavernous nerve was isolated at the lateral aspect of the prostate, and electrical stimulation was performed with a slender bipolar platinum electrode, which was connected to a S48 stimulator (Grass Instrument Co., Boston, MA, U.S.A.). To measure the maximum amplitude of the erectile response, a first stimulation of the cavernous nerve (square wave pulses of 6 Volts, 10 Hz, 1 ms pulse duration for 30 s) was performed.
IP2015, sildenafil, clozapine or vehicle were administered by injection in the jugular vein in volumes of maximum 200 μl. […] The observation period of spontaneous erection after injection of IP2015 was 30 min. Clozapine (1 mg/kg) or sildenafil (1 mg/kg) were administered 30 or 10 min prior to 1 mg/kg IP2015 injection, respectively. One group was injected with vehicle alone.
To investigate the involvement of proximal neuronal pathways in the effect of IP2015, mechanical denervation was performed. For mechanical denervation the isolated cavernous nerve was cut distal to the major pelvic ganglion. Absence of erectile response to electrical stimulation verified the efficacy of mechanical denervation.

[2] = system: rat corpus cavernosum strips; test: Isometric tension of isolated rat corpus cavernosum strips; conditions: baseline tension, clozapine 10^-6 M, SCH23390, L-NOARG 10^-4 M, sildenafil 10^-7 M
Method: For functional studies in corpus cavernosum strips, the penis was removed by cutting the crura corpora cavernosa at the point of adhesion to the lower pubic bone, and the corpora cavernosa were then dissected free. The penis was submerged immediately in ice-cold (4° C.) PSS. The tunica albuginea was carefully opened from its proximal extremity of the corpus cavernosum towards the penile shaft and the erectile tissue within the corpus cavernosum was microsurgically dissected free. Change in isometric tension of corpus cavernosum strips (0.5×0.5×3 mm) were investigated in a tissue organ bath system (750TOBS, Danish Myotechnology, Aarhus, Denmark). Silk ligatures were applied at both ends of the strip preparations, which were then suspended between two L-formed metal prongs in thermostatically controlled organ baths (5 ml, 37° C.) containing PSS aerated with a mixture of 5% CO2 in air (pH 7.4). The bath fluid was routinely changed every 20 min and replaced with fresh PSS, also kept at 37° C. During an equilibration period of 60 min, tension was adjusted until a mean stable tension of 1.2 mN was obtained, as described earlier.
To test the contractility of the preparations, they were exposed to a potassium physiological saline solution (KPSS) of 125 mM and phenylephrine (10^-6 M), after each contraction acetylcholine was administrated to check endothelium-dependent relaxations.
To investigate the effect of IP2015 on corpus cavernosum strips, the drug (10 9-3×10^-4 M) was administered either in preparations at baseline tension or contracted with phenylephrine (10^-6 M) in the absence or presence of L-NOARG (10 4 M), a NO synthase inhibitor, sildenafil (10^-7 M), a PDE5 inhibitor, a dopamine D1 receptor antagonist, SCH23390, and a dopamine D2 receptor antagonist, clozapine (10^-6 M). The effect of vehicle was also investigated.

Compound | effect on magnitude of erectile responses induced by IP2015 (0.1 mg/kg) ([1]; sildenafil 1 mg/kg) | effect on IP2015-induced erectile responses ([1]; sildenafil 1 mg/kg 10 min or clozapine 1 mg/kg 30 min prior to IP2015 i.v.) | effect on IP2015 relaxation of corpus cavernosum strips [2] | effect on IP2015 relaxation of corpus cavernosum strips ([2]; listed as NG-nitro-L-arginine)
CCCc1nn(C)c2c(=O)[nH]c(-c3cc(S(=O)(=O)N4CCN(C)CC4)ccc3OCC)nc12 [sildenafil, reference compound] | an effect on the magnitude of erectile responses | markedly increased the duration of these responses; also recorded: further enhanced the IP2015 mediated increase in intracavernosal pressure | enhanced relaxation to IP2015 | –
N=C(NCCC[C@H](N)C(=O)O)N[N+](=O)[O-] [L-NOARG, N^G-nitro-L-arginine, reference compound] | – | – | abolished the relaxant effect of IP2015 | blunted

— patent publication US20260216166A1, “COMPOUND FOR TREATMENT OF ERECTILE DYSFUNCTION” (Initiator Pharma A/S, priority 2023, published 2026)
